In ChEMBL document CHEMBL4049443, “Discovery of 2-[[2-Ethyl-6-[4-[2-(3-hydroxyazetidin-1-yl)-2-oxoethyl]piperazin-1-yl]-8-methylimidazo[1,2-a]pyridin-3-yl]methylamino]-4-(4-fluorophenyl)thiazole-5-carbonitrile (GLPG1690), a First-in-Class Autotaxin Inhibitor Undergoing Clinical Evaluation for the Treatment of Idiopathic Pulmonary …” (J Med Chem, 2017):

What was measured:
Autotaxin = Autotaxin (Homo sapiens, UniProt Q13822); test: Inhibition of human ATX using LPC (16:0) as substrate after 30 mins by horseradish peroxidase/choline oxidase coupled enzyme based spectrophotometric analysis
Cytochrome P450 3A4 = Cytochrome P450 3A4 (Homo sapiens, UniProt P08684); test: Time-dependent inhibition of human liver microsomes CYP3A4; assay type: ADME
Sequence of Cytochrome P450 3A4 (P08684 whole entry): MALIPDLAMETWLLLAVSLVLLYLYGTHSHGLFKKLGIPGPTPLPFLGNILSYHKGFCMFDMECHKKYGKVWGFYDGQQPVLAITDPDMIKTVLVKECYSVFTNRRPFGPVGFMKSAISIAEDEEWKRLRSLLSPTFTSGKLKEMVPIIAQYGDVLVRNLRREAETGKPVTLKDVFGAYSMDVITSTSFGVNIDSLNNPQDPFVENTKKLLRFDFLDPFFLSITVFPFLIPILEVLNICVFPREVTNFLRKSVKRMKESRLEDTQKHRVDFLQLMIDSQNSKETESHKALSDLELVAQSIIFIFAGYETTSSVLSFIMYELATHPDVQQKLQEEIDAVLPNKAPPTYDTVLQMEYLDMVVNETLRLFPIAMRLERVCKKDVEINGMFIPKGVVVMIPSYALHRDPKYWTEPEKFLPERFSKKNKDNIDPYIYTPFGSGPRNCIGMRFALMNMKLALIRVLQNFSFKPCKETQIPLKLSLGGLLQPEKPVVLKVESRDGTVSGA

IC50 (Autotaxin) [µM] | TDI (Cytochrome P450 3A4) | Structure (SMILES)
0.103 | Not Active | CCc1nc2c(C)cc(C3CCN(CC(=O)N4CC(O)C4)CC3)cn2c1N(C)c1nc(-c2ccc(F)cc2)c(C#N)s1
0.192 | Active | CCc1nc2ccc(C3CCN(CC(=O)N4CC(O)C4)CC3)nn2c1N(C)c1ccc(C#N)c(-c2ccc(F)cc2)n1
0.06 | Active | CCc1nc2ccc(N3CCN(CC(=O)N4CC(O)C4)CC3)nn2c1N(C)c1nc(-c2ccc(F)cc2)c(C#N)s1
